The results in this text go back to patent US5696112A, “Fused heterocyclic azepines as vasopressin antagonists” (American Cyanamid Company, priority 1995, dated 1997).

Test [1] concerns the target T1, Human V2 Vasopressin Receptor (Homo sapiens, UniProt P30518).
T1 construct: expressed in transfected cells; host or cells: mouse fibroblast cell line LV-2
Kind of test: Binding to Membranes of Mouse Fibroblast Cell Line (LV-2) Transfected with the cDNA Expressing the Human V2 Receptor. The note with it: LV-2 cell membranes. As to the method:
Binding to Membranes Of Mouse Fibroblast Cell Line (LV-2) Transfected with the cDNA expressing the Human V2 Vasopressin Receptor
Flasks of 175 ml capacity, containing attached cells grown to confluence are cleared of culture medium by aspiration. The flasks containing the attached cells are rinsed with 2×5 ml of phosphate buffered saline (PBS) and the liquid aspirated off each time. Finally, 5 ml of an enzyme free dissociation Hank's based solution (Specialty Media, Inc., Lafayette, N.J.) is added and the flasks are left undisturbed for 2 min. The content of all flasks is poured into a centrifuge tube and the cells pelleted at 300×g for 15 min. The Hank's based solution is aspirated off and the cells homo-genized with a polytron at setting #6 for 10 sec in 10.0 mM Tris.HCl buffer, pH 7.4 containing 0.25M sucrose and 1.0 mM EDTA. The homogenate is centrifuged at 1500×g for 10 min to remove ghost membranes. The supernatant fluid is centrifuged at 100,000×g for 60 min to pellet the receptor protein. Upon completion, the pellet is resuspended in a small volume of 50.0 mM Tris.HCl buffer, pH 7.4. The protein content is determined by the Lowry method and the receptor membranes are suspended in 50.0 mM Tris.HCl buffer containing 0.1 mM phenylmethylsulfonylfluoride (PMSF) and 0.2% bovine serum albumin (BSA) to give 2.5 mg receptor protein per ml of suspension.
For binding experiments, the following is added in μl volume to wells of a 96 well format of a microtiter plate: 100.0 μl of 100.0 mM Tris.HCl buffer containing 0.2% heat inactivated BSA, 10.0 mM MgCl2 and a mixture of protease inhibitors: leupeptin, 1.0 mg %; aprotinin, 1.0 mg %; 1,10-phenanthroline, 2.0 mg %; trypsin inhibitor, 10.0 mg % and 0.1 mM PMSF, 20.0 μl of [^3 H]Arginine^8, vasopressin (S.A. 75.0 Ci/mmole) at 0.8 nM and the reaction initiated by the addition of 80.0 μl of tissue membranes (200.0 μg tissue protein). The plates are left undisturbed on the bench top for 120 min to reach equilbrium. Non-specific binding is assessed in the presence of 1.0 μM of unlabeled ligand, added in 20 μl volume. For test compounds, these are solubilized in 50% dimethylsulfoxide (DMSO) and added in 20.0 μl volume to a final incubation volume of 200 μl . Upon completion of binding, the content of each well is filtered off, using a Brandel® cell Harvester (Gaithersburg, Md.). The radioactivity trapped on the filter disk by the ligand-receptor complex is assessed by liquid scintillation counting in a Packard LS Counter, with an efficiency of 65% for tritium. The data are analyzed for IC50 values by the LUNDON-2 program for competition (LUNDON SOFTWARE, OH).

In test [2] the target is T2, Vasopressin V1 Receptor Subtype in Human Platelet Membranes (Homo sapiens, UniProt P37288).
T2 construct: tissue Hudson Valley Blood Services, Westchester Medical Center, Valhalla, N.Y; host or cells: human platelet membranes from frozen platelet rich plasma
T2 sequence (P37288 whole entry): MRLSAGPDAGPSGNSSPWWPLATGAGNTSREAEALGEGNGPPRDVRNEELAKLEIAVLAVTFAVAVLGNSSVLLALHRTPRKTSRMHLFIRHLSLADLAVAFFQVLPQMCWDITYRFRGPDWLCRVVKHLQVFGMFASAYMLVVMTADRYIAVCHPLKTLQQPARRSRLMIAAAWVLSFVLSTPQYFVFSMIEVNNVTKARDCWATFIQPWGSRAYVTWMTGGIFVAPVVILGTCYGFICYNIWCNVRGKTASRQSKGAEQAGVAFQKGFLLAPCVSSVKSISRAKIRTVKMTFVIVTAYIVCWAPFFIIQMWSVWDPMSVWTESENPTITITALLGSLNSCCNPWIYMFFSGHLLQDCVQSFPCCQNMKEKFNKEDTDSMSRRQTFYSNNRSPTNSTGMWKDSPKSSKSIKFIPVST
Put plainly: Binding to V1 Receptor Subtype in Human Platelet membranes. As to the method:
Radioligand Binding Experiments with Human Platelet Membranes
Platelet Source: Hudson Valley Blood Services, Westchester Medical Center, Valhalla, N.Y.
Platelet Membrane Preparation:
Frozen platelet rich plasma (PRP), received from the Hudson Valley Blood Services are thawed to room temperature. The tubes containing the PRP are centrifuged at 16,000×g for 10 min. at 4° C. and the supernatant fluid discarded. The platelets resuspended in an equal volume of 50.0 mMTris.HCl, pH 7.5 containing 120 mM NaCl and 20.0 mM EDTA. The suspension is recentrifuged at 16,000×g for 10 min. This washing step is repeated one more time. The wash is discarded and the lysed pellets homogenized in low ionic strength buffer of Tris.HCl, 5.0 mM, pH 7.5 containing 5.0 mM EDTA. The homogenate is centrifuged at 39,000×g for 10 min. The resulting pellet is resuspended in Tris.HCl buffer, 70.0 mM, pH 7.5 and recentrifuged at 39,000×g for 10 min. The final pellet is resuspended in 50.0 mM Tris.HCl buffer pH 7.4 containing 120 mM NaCl and 5.0 mM HCl to give 1.0-2.0 mg protein per ml of suspension.
Binding to Vasopressin V1 Receptor Subtype in Human Platelet Membranes:
In wells of a 96 well format microtiter plate, add 100 μl of 50.0 mM Tris.HCl buffer containing 0.2% BSA and a mixture of protease inhibitors (aprotinin, leupeptin etc.). Then add 20 μl of [^3 H]Ligand: (Manning or Arg^8 Vasopressin), to give final concentrations ranging from 0.01 to 10.0 nM. Initiate the binding by adding 80.0 μl of platelet suspension (approx. 100 μg protein). Mix all reagents by pipetting the mixture up and down a few times. Non-specific binding is measured in the presence of 1.0 μM of unlabeled ligand (Manning or Arg^8 Vasopressin). Let the mixture stand undisturbed at room temperature for ninety (90) min. Upon this time, rapidly filter off the incubate under vacuum suction over GF/B filters, using a Brandel® Harvester. Determine the radioactivity caught on the filter disks by the addition of liquid scintillant and counting in a liquid scintillator

Molecules are shown by their SMILES.

T1 sequence (P30518 whole entry): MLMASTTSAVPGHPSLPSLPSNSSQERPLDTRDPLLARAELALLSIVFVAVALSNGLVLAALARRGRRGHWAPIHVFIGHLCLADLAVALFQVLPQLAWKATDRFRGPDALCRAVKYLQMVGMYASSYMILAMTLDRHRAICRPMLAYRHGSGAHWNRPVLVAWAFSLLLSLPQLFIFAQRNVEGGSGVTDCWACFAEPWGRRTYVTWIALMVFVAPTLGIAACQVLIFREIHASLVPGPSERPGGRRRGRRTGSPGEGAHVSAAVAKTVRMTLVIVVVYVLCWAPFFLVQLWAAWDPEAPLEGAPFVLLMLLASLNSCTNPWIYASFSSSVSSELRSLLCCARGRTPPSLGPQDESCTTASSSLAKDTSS

A word on the IC50: it is the concentration needed to halve the response being measured. The low end stands for greater potency in that assay, the high end for weaker potency in that assay. With `O=C(Nc1ccc(C(=O)N2CCCCc3sccc32)c(Cl)c1)c1ccc(Cl)cc1Cl` [Example 68, N-[4-[(5,6,7,8-Tetrahydro-4H-thieno[3,2-b]azepin-4-yl)carbonyl]-3-chlorophenyl]-2,4-dichlorobenzamide], the half-maximal inhibitory concentration (IC50) in test [1] amounted to 0.022 µM; in test [2], 0.68 µM.
On to `Cc1ccc(F)cc1C(=O)Nc1ccc(C(=O)N2CCCCc3sccc32)c(Cl)c1` [Example 70, N-[4-[(5,6,7,8-Tetrahydro-4H-thieno[3,2-b]azepin-4-yl)carbonyl]-3-chlorophenyl]-5-fluoro-2-methylbenzamide], for which the results for the IC50 in test [1] and in test [2] were 0.0034 µM and 0.11 µM, respectively.
On the same counts, the results for `O=C(Nc1ccc(C(=O)N2CCCCc3sc(Cl)cc32)cc1)c1c(Cl)cccc1Cl` [Example 95, N-[4-[(2-Chloro-5,6,7,8-tetrahydro-4H-thieno[3,2-b]azepin-4-yl)carbonyl]phenyl]-2,6-dichlorobenzamide] are 0.004 µM and 0.19 µM.
Regarding `O=C(Nc1ccc(C(=O)N2CCCCc3sccc32)c(Cl)c1)c1ccc(F)cc1Cl` [Example 183], the concentration for half-maximal inhibition (IC50) in test [1] was determined as 0.0022 µM; in test [2], 0.18 µM.
